{"source": "paper PMC8317940", "about": "“Strained contacts with the cell membrane may influence ligand affinity to G protein coupled receptors: a case of free fatty acid receptor 1 agonists” (Journal of Enzyme Inhibition and Medicinal Chemistry, 2021)", "molecular_target": "T1, free fatty acid receptor 1 (FFA1, GPR40) (Homo sapiens, UniProt O14842)", "T1 construct": "gene FFAR1", "T1 sequence (O14842 whole entry)": "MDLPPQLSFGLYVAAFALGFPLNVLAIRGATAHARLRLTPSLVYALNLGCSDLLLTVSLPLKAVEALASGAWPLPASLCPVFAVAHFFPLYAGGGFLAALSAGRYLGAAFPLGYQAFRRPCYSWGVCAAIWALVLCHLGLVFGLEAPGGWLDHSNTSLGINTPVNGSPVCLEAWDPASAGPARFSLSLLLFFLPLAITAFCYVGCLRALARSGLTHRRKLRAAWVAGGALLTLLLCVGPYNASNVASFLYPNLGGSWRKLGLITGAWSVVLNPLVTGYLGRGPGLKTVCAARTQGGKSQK", "test": "calcium flux (FLIPR) agonist assay in CHO cells stably expressing human FFA1", "format": "cell-based", "data": [{"smiles": "O=C(O)CCc1nnc(C(=O)Nc2cccc(-c3ccc(OC(F)(F)F)cc3)c2)s1", "note": "[2c, 3-[5-({[4′-(Trifluoromethoxy)biphenyl-3-yl]amino}carbonyl)-1,3,4-thiadiazol-2-yl]propanoic acid]", "values": [{"measurement": "EC50", "result": 1250, "unit": "nM"}]}, {"smiles": "COc1cccc(-c2ccc(NC(=O)c3nnc(CCC(=O)O)s3)cc2)c1", "note": "[2g, 3-(5-{[(3′-Methoxybiphenyl-4-yl)amino]carbonyl}-1,3,4-thiadiazol-2-yl)propanoic acid]", "values": [{"measurement": "EC50", "result": 1350, "unit": "nM"}]}, {"smiles": "O=C(O)CCc1nnc(C(=O)Nc2ccc(-c3cccc(C(F)(F)F)c3)cc2)s1", "note": "[2e, 3-[5-({[3′-(Trifluoromethyl)biphenyl-4-yl]amino}carbonyl)-1,3,4-thiadiazol-2-yl]propanoic acid]", "values": [{"measurement": "EC50", "result": 1860, "unit": "nM"}]}, {"smiles": "O=C(O)CCc1nnc(C(=O)Nc2cccc(-c3ccc(Cl)cc3)c2)s1", "note": "[2a, 3-(5-{[(4′-Chlorobiphenyl-3-yl)amino]carbonyl}-1,3,4-thiadiazol-2-yl)propanoic acid]", "values": [{"measurement": "EC50", "result": 1320, "unit": "nM"}]}]}
